For data set [1], the target named is T1, Jack bean Urease (Canavalia ensiformis, UniProt P07374).
T1 construct: purchased Sigma
Nature of the data set: biochemical. As to the method:
Urease activity was obtained by measuring ammonia production using the indophenol method as described by Bankeu et al., (2017). […] Reaction mixtures with 25 μL of enzyme (Jack bean Urease bought from Sigma) solution and 55 μL of buffers containing 100 mM urea were incubated with 5 μL of compounds 1—4 (1 mM concentration) at 30 °C for 15 min in 96-well plates. In fact, 45 μL each of phenol reagent (1% w/v phenol and 0.005% w/v sodium nitroprusside) and 70 μL of alkali reagent (0.5% w/v NaOH and 0.1% active chloride NaOCl) were added to each well. The absorbance at 630 nm was recorded after 50 min, using a microplate reader (Molecular Device, USA). All reactions were performed in triplicate in a final volume of 200 μL. The results (change in absorbance per min) were processed by using Soft Max Pro software (Molecular Device, USA). All the assays were performed at pH 8.2 (0.01 M K2HPO4·3H2O, 1 mM EDTA and 0.01 M LiCl). Percentage inhibitions were calculated from the formula (Eq. 1):1 Urease inhibition%=100-ODtest/ODcontrol×100 where OD stands for optical density.
Urease inhibition percentages were used to determine the concentration that inhibit 50% of urease activity (IC50) using GraphPad Prism 5.0, USA.
The resulting data are shown as mean ± SD of three independent assays. One way one analysis of variance (ANOVA) was carried out for the determination of difference between groups (GraphPad Prism 5.0, USA). […] was considered as significant.

A word on the IC50: it is the midpoint of a concentration-inhibition curve. Lower therefore signals inhibition by little substance. As a reminder, the melting point is the temperature, or range, at which the solid turns liquid.

The structures appear in SMILES notation.

T1 sequence (P07374 whole entry, looked up): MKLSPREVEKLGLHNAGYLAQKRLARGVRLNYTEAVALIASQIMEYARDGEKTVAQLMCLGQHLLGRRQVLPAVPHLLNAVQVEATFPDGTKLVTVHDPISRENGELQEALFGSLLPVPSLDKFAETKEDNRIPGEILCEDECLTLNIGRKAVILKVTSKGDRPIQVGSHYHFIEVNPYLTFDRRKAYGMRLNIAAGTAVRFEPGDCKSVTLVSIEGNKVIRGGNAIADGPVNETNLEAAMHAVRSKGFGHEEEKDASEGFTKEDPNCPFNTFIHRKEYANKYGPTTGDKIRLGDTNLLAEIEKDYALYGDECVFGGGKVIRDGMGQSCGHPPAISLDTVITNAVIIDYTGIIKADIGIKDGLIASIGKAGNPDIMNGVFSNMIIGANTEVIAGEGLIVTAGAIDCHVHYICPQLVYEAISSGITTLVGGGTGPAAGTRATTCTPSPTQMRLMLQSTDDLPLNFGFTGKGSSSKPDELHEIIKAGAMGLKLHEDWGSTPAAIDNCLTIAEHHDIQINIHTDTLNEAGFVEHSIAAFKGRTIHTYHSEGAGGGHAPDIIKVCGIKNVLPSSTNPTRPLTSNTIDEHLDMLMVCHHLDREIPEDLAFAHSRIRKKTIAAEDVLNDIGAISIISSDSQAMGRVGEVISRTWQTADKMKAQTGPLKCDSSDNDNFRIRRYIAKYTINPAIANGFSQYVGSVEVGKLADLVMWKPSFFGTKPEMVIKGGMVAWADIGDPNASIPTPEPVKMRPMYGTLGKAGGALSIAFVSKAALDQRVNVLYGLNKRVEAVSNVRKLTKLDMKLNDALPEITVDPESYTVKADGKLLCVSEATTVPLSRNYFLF

As to `COc1ccc2[nH]c3c(c2c1)C[C@]1(C)C2CC=C4[C@H]5CC(C)(C)CC[C@]5(C)CC[C@@]4(C)[C@]2(C)CC[C@H]1C3(C)C` (stereo partly drawn) [Compound 3, (4aR,6aS,6bR,8aR,15aR,17bS)-13-Methoxy-2,2,4a,6a,6b,9,9,15a-octamethyl-2,3,4,4a,5,6,6a,6b,7,8,8a,9,10,15,15a,15b,16,17b-octadecahydro-1H-chryseno[2,1-b]carbazole], the IC50 in data set [1] was 22.2 ± 0.9 µM.

`CC1(C)CC[C@]2(C)CC[C@]3(C)C(=CCC4[C@@]5(C)CCC(=O)C(C)(C)[C@@H]5CC[C@]43C)[C@H]2C1` (stereo partly drawn) [Compound 1, β-Amyrenone] registered an IC50 in data set [1] of 14.5 ± 0.21 µM.

For the compound `CC1(C)CC[C@]2(C)CC[C@]3(C)C(=CCC4[C@@]5(C)Cc6c([nH]c7ccccc67)C(C)(C)[C@@H]5CC[C@]43C)[C@H]2C1` (stereo partly drawn) [Compound 4, (4aR,6aS,6bR,8aR,15aR,17bS)-2,2,4a,6a,6b,9,9,15a-Octamethyl-2,3,4,4a,5,6,6a,6b,7,8,8a,9,10,15,15a,15b,16,17b-octadecahydro-1H-chryseno[2,1-b]carbazole], the IC50 in data set [1] is 17.9 ± 0.45 µM.

With `CC1(C)CCC2(C)CCC3(C)C(=CCC4C5(C)CC/C(=N\Nc6ccc([N+](=O)[O-])cc6[N+](=O)[O-])C(C)(C)C5CCC43C)C2C1` (centres unmarked) [Compound 2, (E)-1-(2,4-Dinitrophenyl)-2-(4,4,6a,6b,8a,11,11,14b-octamethyl-1,4,4a,5,6,6a,6b,7,8,8a,9,10,11,12,12a,14,14a,14b-octadecahydropicen-3(2H)-ylidene)hydrazine], the melting point was 260 °C. The same compound displayed an IC50 in data set [1] of 24.6 ± 0.17 µM.

Values taken from PMC6328428, “Synthesis, Urease Inhibition and Molecular Modelling Studies of Novel Derivatives of the Naturally Occurring β-Amyrenone” (Natural Products and Bioprospecting, 2018).
